Converted amounts (≈) assume the structure as drawn. “And” between values parts separate entries of the source, which are not always exact repeats. Equal values may be shown once. Read-outs that look alike come from different tables or passages of the source.
Key:
[1] = tested on: P. falciparum asexual erythrocytic forms; test: P. falciparum in vitro growth, clone not stated; format: cell-based, Plasmodium falciparum
Method: This assay is performed in folate deficient RPMI 1640 over a 66 hour incubation in plasma as described by Milhous et al. (1985). Both the W2 clone DHFR resistant phenotype and the D6 clone are used (Odula et al., 1988) (Table 3).

C. parvum = C. parvum infection of MDBKF5D2 cell monolayers, immunofluorescence assay at 48 hours; format: cell-based, Cryptosporidium parvum; conditions: for approximate 95% C1 count (mean parasite count per field): media alone ~1800
Method: C. parvum oocysts at 50,000/well were incubated at 37° C. (8% CO2) on confluent MDBKF5D2 cell monolayers in 96 well microtiter plates with the following concentrations of each drug. […] The level of infection of each well was determined and analyzed by an immunofluorescence assay at 48 hours using an antibody to C. parvum sporozoites made in rabbits at a concentration of 0.1%. Fluorescein-conjugated goat anti-rabbit antibody was used at a concentration of 1%.
(8% carbon dioxide) on confluent MDBKF5D2 cell monolayers in 96 well microtiter plates. The level of infection of each well was determined and analyzed by an immunofluorescence assay at 48 hours using as an antibody C. parvum sporozoite rabbit anti-serum (0.1%), and using fluorescein-conjugated goat anti-rabbit antibody (1%). Data are expressed as mean parasite count/field when 16 fields counted at 10× magnification “s.d. of the mean” (FIG. 6).

[2] = tested on: human foreskin fibroblasts (HFF); test: Toxicity: growth of fibroblasts, tritiated thymidine uptake and microscopic evaluation; format: cell-based; conditions: similar concentrations (20 mM gabaculine)
Method: (§1) In these assays toxicity of a candidate inhibitor was assessed by its ability to prevent growth of human foreskin fibroblasts (HFF) after 4 days and after 8 days as measured by tritiated thymidine uptake and microscopic evaluation. Confluent monolayers of HFF were infected with tachyzoites and bradyzoites. Inhibitor was added one hour later. Non-toxic doses were used in parasite growth inhibition assays. Parasite growth was measured by ability to incorporate tritiated uracil during the last 18 hours of culture.
(§2) First the toxicity of gabaculine was assessed by its ability to prevent growth of human foreskin fibroblasts (HFF) as measured by ^3H-thymidine uptake and microscopic evaluation. Non-toxic doses were used in parasite growth inhibition assays. in vitro parasite growth inhibition assays included confluent monolayers of HFF infected with tachyzoites (RH) or mutant Me49 (R5). Gabaculine was added 1 hour later. Parasite growth was measured by the ability to incorporate ^3H-uracil during the last 18 hours of culture. In addition, parasite growth was evaluated microscopically in Giemsa stained slides.
d) Inhibitors: Inhibitor compounds are tested over a range of concentrations for toxicity against mammalian cells by assessing their ability to prevent cell growth as measured by tritiated thymidine uptake and inspection of the monolayer using microscopic evaluation. […]

[3] = tested on: mutant R5 strain of T. gondii; test: Growth of mutant R5 strain of T. gondii in HFF over 8 days, uracil uptake; format: cell-based, Toxoplasma gondii; conditions: gabaculine 20 mM; P/S
Method: Improvements were developed in the assays reported by Mack et al. (1984) and Holfels et al. (1994) to measure T. gondii replication in tissue culture. The improvements are based on microscopic visual imspection of infected and inhibitor treated cultures, and on quantitation of nucleic acid synthesis of the parasite by measure intake of ^3H uracil onto the parasite's nucleic acid. Uracil is not utilized by mammalian cells. […]
First the toxicity of gabaculine was assessed by its ability to prevent growth of human foreskin fibroblasts (HFF) as measured by ^3H-thymidine uptake and microscopic evaluation. […] Parasite growth was measured by the ability to incorporate ^3H-uracil during the last 18 hours of culture. In addition, parasite growth was evaluated microscopically in Giemsa stained slides.
This mutant strain is atovaquone resistant and posseses certain characterisitics of the tachyzoite stage and certain characteristics of the bradyzoite stage. T. gondii growth is measure by their ability to incorporate tritiated uracil and is expressed as counts/minute (CPM) on the Y-axis. […]

[4] = tested on: T. gondii tachyzoites (RH strain); test: microbe, parasite or virus in culture; format: cell-based, Toxoplasma gondii
Method: The improvements are based on microscopic visual imspection of infected and inhibitor treated cultures, and on quantitation of nucleic acid synthesis of the parasite by measure intake of ^3H uracil onto the parasite's nucleic acid. Uracil is not utilized by mammalian cells. […] Only the RH strain tachyzoites, cultured for up to 72 hours, had been used in previously reported assays. The use of Me49, Ptg, and R5 mutant are unique aspects of the methods used in these assays in this invention.
as §1, §2
ii) in vitro Parasite Growth Inhibition Assays: Confluent monolayers of HFF cells, grown in 96-well plates are infected with T. gondii tachyzoites of the RH strain and serial dilutions of anti-microbial compound are applied 1 hour later. T. gondii growth is assessed in these cultures by their ability to incorporate tritiated uracil (2.5 μCi/well) added during the last 18 hours of culture. After harvesting cells with an automatic cell harvester, uracil incorporation is measured by liquid scintillation.

[5] = tested on: D6 clone of Plasmodium falciparum; test: P. falciparum in vitro assay (Milhous et al., 1985), D6 clone; format: cell-based; conditions: D6 clone, folate deficient RPMI 1640, 66 hour incubation
T. gondii = test: Assay for synergy in vitro: inhibitors alone and together on replication of T. gondii (uracil CPM); format: cell-based, Toxoplasma gondii; conditions: Drug A alone: NPMG (3.25 mM)
Excerpt: The effect of enzymes in pathways “in parallel” are additive and in “series” are more than the additive effect of either inhibitor used alone (i.e., synergistic). […] The shikimate pathway produces 3,4-dihdroxybenzoate which is converted to ubiquinone, an essential component of the electron transport chain. Thus, NPMG, an inhibitor of EPSP-synthase, indirectly affects ubiquinone production and, thus, the electron transport chain. Similarly, heme is required for production of cytochromes in the electron transport chain. Thus, inhibition of heme production by gabaculine also indirectly affects the conventional electron transport chain. […] T. gondii growth is measured by their ability to incorporate tritiated uracil and is expressed as counts/minute (CPM).
g) Assays for Synergy in vitro: This is an assy in which ≦50% inhibitor concentrations of two antimicrobial agents are added alone and together to determine whether there is an additive, synergistic or inhibitory interaction. All other aspects of this assay are as described herein.

T. gondii EPSP synthase = T. gondii EPSP synthase enzyme activity (HPLC); format: biochemical, Toxoplasma gondii; conditions: 1 mM
Method: Assays for 4-aminobenzoate and 4-amino-4-deoxychorismate are performed as described previously.” Enzyme Assays: The 5-enolpyruvylshikimate-3-phosphate (EPSP) synthase assay entailed monitoring the generation of EPSP using HPLC. Reaction components were separated using a Hypersil H3APS2 HPLC column (Hichrom Limited, Reading, UK) and a NaH2PO4 elution gradient (50-400 mM). UV spectra (200-300 nm) of the colume eluate were collected to identify eluants. […] The peaks at 215 nm were integrated; the EPSP produced was quantified using a standard curve of authentic EPSP. Parasite extracts were produced at 4° C. by suspension of pure tachyzoites in extraction buffer (50 mM Tris.HCl, pH 7.5, containing complete TM protease inhibitor cocktail [Boehringer Mannheim, 1 tablet per 50 ml buffer]), sonication 3 times for 3 seconds at 30 second intervals, and centrifugation at 12000 g for 15 min. The resulting supernatant was diluted 6-fold with extraction buffer and loaded onto a ResourceQ column (1 ml, Pharmacia) equilibrated with extraction buffer. The bound protein was eluted in a single step using extraction buffer containing 500 mM Kcl. The eluted material was used for enzyme assay. The assay mix contained 1 mM phosphoenolpyruvate, 1 mM SP and 50 mM HEPES, pH 7.5. […] Protein concentrations of lysates were determined using the Lowry method. […]

[6] = tested on: T. gondii isocitrate lyase; test: Isocitrate lyase enzyme activity in T. gondii tachyzoite lysates; format: biochemical, Toxoplasma gondii
Method: Parasite lysates were obtained from tachyzoites, suspended in elution buffer (100 mM KCL, 20% gylcerol 7 mM 2-mercaptoethanol, 20 mM Tris-HCL, pH 7.5, and complete protease inhibitor cocktail) [Boehringer Mannheim, 1 table per 50 ml buffer], sonicated 3 times for 3 seconds at 30 sec intervals, and centrifuged at 12,000 g for 15 min. The supernatant collected was applied to a Sephadex® G100 column (25 ml, Pharmacia) equilibrated with elution buffer, eluted with 15 ml of elution buffer,. and ≈1.5 ml fractions were collected. Fraction(s) with the peak protein concentrations (protein analysis performed on a spectrophotometer at 280 nm) were selected and used in enzyme assays.
A discontinuous method descrobed by Ko and McFadden^17 was employed with minor modifications to measure the ability of isocitrate lyase to convert isocitrate to succinate and glyoxylate. This method utilizes the colorimetric reaction between the phenylhydrozone of glyoxylate and ferricyanide. Reaction mixtures (92 mM MOPS, 5 mM MgCL2, 1 mM DTT, 1% phenylhydrazine, 4.4 mM isocitrate, in 0.5 ml with fractionated parasite lysate) were incubated in a 37° C. water bath for a determined amount of time. After incubation, enzymatic reactions were stopped with concentrated HCl, mixed with 25% (w/v) potassium ferricyanide, and then measured in a spectrophotometer at 520 nm.

SMILES: NC1C=CC=C(C(=O)O)C1 (centres unmarked) [gabaculine, 3-amino-2,3-dihydrobenzoic acid]
- IC50 ([1]; Plasmodium falciparum): ≥ 45 µg/mL
- approximate 95% C1 count (mean parasite count per field) (C. parvum; gabaculine 0.2 μg/ml): ~1300
- approximate 95% C1 count (mean parasite count per field) (C. parvum; gabaculine 2 μg/ml): ~600
- approximate 95% C1 count (mean parasite count per field) (C. parvum; gabaculine 20 μg/ml): ~200
- toxicity to the foreskin fibroblasts [2]: no toxicity
- Parasite growth of R5 strain over 8 days (CPM) [3]: restricted in cultures with 20 mM gabaculine (gabaculine) over the first 6 days of culture
- CPM restricted (tritiated uracil incorporation) [4]: around 50%
- counts (tritiated uracil incorporation) [4]: about 5,000 CPM
- inhibition at 5000 µM ([4]; Toxoplasma gondii, Fibroblast, 96 h, read-out: growth of T. gondii inhibited): ~60%
- Parasite growth over the 8 day time course (CPM) ([4]; gabaculine 20 mM, P/S): restricted

SMILES: O=C(O)CNCP(=O)(O)O [NPMG, N-(phosphonomethyl) glycine]
- IC50 ([5]; read-out: IC 50): 0.823 µg/mL (≈ 4.87 µM)
- IC90 ([5]; read-out: IC90): 2.51 µg/mL (≈ 14.8 µM)
- CPM for A (T. gondii): 28138 ± 2216 CPM and 25097 ± 1398 CPM
- antagonism of glyphosate growth inhibition by products ([1]; asexual erythrocytic forms, PABA and folate added): PABA and folate antagonism of growth inhibition
- approximate 95% C1 count (mean parasite count per field) (C. parvum; NPMG 0.45 μg/ml): ~1200
- approximate 95% C1 count (mean parasite count per field) (C. parvum; NPMG 4.5 μg/ml): ~900
- approximate 95% C1 count (mean parasite count per field) (C. parvum; NPMG 0.045): ~1200
- effect of PABA on the effect of NPMG on C. parvum (C. parvum; PABA added): not abrogated by PABA
- CPM restricted (tritiated uracil incorporation) ([4]; NPMG 3.12 mM, 4 day, medium around 72,000): around 60%
- counts (tritiated uracil incorporation) ([4]; NPMG 4.5 mM, 4 day, medium around 72,000, no RH around 2,000 CPM): about 12,000 CPM
- product rescue: effect of added PABA on inhibition by NPMG ([4]; PABA added to cultures): abrogates
- inhibition at 4500 µM ([4]; Toxoplasma gondii, Fibroblast, 96 h, NPMG 4.5 mM, 4 day, read-out: parasite growth inhibited): ~80%
- EPSP synthase enzyme activity (T. gondii EPSP synthase): inhibition

SMILES: O=C(O)CC[N+](=O)[O-] [3-NPA, 3-Nitropropionic acid]
- Isocitrate lyase enzyme activity [6]: inhibition
- effect on Cryptosporidia in vitro (C. parvum): inhibited
- CPM restricted (tritiated uracil incorporation) ([4]; 3-NPA 0.006 mg ml, 4-day, medium about 30,000 CPM): around 60%

— US6737237B1, “Antimicrobial agents, diagnostic reagents, and vaccines based on unique Apicomplexan parasite components” (Apicomplexan Therapeutics, LLC, priority 1999, dated 2004)
